Reference: the kinase profiling compilation of Christmann-Franck et al. (2016)

Key:
Test in all cases: KINOMEscan competition binding
Details in all cases: compound 10.0 µM
PIP4K2B (human) = PIP4K2B (human) (UniProt P78356)
CDK11B (human) = CDK11B (human) (UniProt P21127)
CDC42BPB (human) = CDC42BPB (human) (UniProt Q9Y5S2)
TNK2 (human) = TNK2 (human) (UniProt Q07912)
NEK2 (human) = NEK2 (human) (UniProt P51955)
DCLK3 (human) = DCLK3 (human) (UniProt Q9C098)
MAP3K9 (human) = MAP3K9 (human) (UniProt P80192)
STK17A (human) = STK17A (human) (UniProt Q9UEE5)
GAK (human) = GAK (human) (UniProt O14976)
PRKD3 (human) = PRKD3 (human) (UniProt O94806)
STK16 (human) = STK16 (human) (UniProt O75716)
EPHB4 (human) = EPHB4 (human) (UniProt P54760)
STK10 (human) = STK10 (human) (UniProt O94804)
PHKG2 (human) = PHKG2 (human) (UniProt P15735)
CDK17 (human) = CDK17 (human) (UniProt Q00537)
MINK1 (human) = MINK1 (human) (UniProt Q8N4C8)
MAP3K11 (human) = MAP3K11 (human) (UniProt Q16584)
ROCK2 (human) = ROCK2 (human) (UniProt O75116)
MAP3K15 (human) = MAP3K15 (human) (UniProt Q6ZN16)
MAP4K4 (human) = MAP4K4 (human) (UniProt O95819)
SYK (human) = SYK (human) (UniProt P43405)
PLK4 (human) = PLK4 (human) (UniProt O00444)
MAP4K1 (human) = MAP4K1 (human) (UniProt Q92918)
EPHA2 (human) = EPHA2 (human) (UniProt P29317)
CHEK1 (human) = CHEK1 (human) (UniProt O14757)
STK38L (human) = STK38L (human) (UniProt Q9Y2H1)
RPS6KA5 KD1 (human) = RPS6KA5 KD1 (human) (UniProt O75582)
MAK (human) = MAK (human) (UniProt P20794)
CSNK1G3 (human) = CSNK1G3 (human) (UniProt Q9Y6M4)
DCLK1 (human) = DCLK1 (human) (UniProt O15075)
CSNK2A2 (human) = CSNK2A2 (human) (UniProt P19784)
[1] = system: MET (human), P08581 [M1250T]
[2] = system: ABL1 (human), P00519 [Q252H]
STK3 (human) = STK3 (human) (UniProt Q13188)
MAPK10 (human) = MAPK10 (human) (UniProt P53779)
OXSR1 (human) = OXSR1 (human) (UniProt O95747)
RPS6KA2 KD1 (human) = RPS6KA2 KD1 (human) (UniProt Q15349)
AURKC (human) = AURKC (human) (UniProt Q9UQB9)
CLK2 (human) = CLK2 (human) (UniProt P49760)
PAK7 (human) = PAK7 (human) (UniProt Q9P286)
MYO3A (human) = MYO3A (human) (UniProt Q8NEV4)

Chain of CSNK1G3 (human) (Q9Y6M4 whole entry, looked up): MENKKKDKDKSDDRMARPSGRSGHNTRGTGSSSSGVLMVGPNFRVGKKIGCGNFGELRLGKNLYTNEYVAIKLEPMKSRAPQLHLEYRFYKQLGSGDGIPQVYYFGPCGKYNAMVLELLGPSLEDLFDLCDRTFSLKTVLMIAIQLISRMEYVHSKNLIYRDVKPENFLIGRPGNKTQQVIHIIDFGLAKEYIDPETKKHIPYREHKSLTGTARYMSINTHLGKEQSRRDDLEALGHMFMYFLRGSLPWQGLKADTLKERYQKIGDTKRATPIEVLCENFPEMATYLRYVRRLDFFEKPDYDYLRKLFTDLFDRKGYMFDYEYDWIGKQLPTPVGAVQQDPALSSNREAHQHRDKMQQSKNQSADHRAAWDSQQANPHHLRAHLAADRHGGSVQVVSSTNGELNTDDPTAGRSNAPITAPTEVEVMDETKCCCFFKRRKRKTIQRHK
Chain of PRKD3 (human) (O94806 whole entry, looked up): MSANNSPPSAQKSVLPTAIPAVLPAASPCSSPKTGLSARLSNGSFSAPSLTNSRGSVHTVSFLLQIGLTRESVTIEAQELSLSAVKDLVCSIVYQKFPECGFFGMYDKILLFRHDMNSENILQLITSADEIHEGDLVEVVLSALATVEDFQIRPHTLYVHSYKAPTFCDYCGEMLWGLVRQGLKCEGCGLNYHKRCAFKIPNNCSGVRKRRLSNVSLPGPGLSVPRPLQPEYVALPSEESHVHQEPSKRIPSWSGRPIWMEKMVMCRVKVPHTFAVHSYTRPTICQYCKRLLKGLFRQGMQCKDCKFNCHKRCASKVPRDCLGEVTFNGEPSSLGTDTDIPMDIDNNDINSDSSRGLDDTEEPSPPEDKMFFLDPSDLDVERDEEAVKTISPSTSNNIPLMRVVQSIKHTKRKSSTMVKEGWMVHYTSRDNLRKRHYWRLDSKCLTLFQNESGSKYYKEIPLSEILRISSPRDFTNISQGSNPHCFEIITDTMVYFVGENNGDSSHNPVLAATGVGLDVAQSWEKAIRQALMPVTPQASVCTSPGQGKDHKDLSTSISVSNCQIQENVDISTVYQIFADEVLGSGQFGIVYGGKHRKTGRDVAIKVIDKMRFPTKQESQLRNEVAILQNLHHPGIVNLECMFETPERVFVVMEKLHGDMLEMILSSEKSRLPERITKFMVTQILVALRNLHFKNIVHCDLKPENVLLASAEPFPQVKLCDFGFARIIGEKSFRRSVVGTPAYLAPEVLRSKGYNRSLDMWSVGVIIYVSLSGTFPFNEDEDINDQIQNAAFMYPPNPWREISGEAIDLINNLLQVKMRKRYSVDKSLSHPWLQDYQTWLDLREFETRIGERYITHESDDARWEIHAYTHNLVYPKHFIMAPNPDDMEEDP
Chain of OXSR1 (human) (O95747 whole entry, looked up): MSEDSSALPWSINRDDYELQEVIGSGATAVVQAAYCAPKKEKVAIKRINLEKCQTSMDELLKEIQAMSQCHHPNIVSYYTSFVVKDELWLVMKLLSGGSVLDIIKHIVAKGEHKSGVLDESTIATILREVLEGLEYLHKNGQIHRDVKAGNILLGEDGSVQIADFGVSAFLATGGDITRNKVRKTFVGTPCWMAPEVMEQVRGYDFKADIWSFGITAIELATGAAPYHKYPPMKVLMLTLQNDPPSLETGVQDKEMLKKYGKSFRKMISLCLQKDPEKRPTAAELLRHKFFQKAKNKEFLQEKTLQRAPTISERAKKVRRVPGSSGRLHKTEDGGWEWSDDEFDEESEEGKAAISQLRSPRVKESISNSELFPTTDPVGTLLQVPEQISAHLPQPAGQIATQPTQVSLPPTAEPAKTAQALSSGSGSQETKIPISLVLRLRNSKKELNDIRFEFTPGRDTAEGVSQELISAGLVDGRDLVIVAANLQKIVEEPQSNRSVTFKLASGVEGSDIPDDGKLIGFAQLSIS
Chain of GAK (human) (O14976 whole entry, looked up): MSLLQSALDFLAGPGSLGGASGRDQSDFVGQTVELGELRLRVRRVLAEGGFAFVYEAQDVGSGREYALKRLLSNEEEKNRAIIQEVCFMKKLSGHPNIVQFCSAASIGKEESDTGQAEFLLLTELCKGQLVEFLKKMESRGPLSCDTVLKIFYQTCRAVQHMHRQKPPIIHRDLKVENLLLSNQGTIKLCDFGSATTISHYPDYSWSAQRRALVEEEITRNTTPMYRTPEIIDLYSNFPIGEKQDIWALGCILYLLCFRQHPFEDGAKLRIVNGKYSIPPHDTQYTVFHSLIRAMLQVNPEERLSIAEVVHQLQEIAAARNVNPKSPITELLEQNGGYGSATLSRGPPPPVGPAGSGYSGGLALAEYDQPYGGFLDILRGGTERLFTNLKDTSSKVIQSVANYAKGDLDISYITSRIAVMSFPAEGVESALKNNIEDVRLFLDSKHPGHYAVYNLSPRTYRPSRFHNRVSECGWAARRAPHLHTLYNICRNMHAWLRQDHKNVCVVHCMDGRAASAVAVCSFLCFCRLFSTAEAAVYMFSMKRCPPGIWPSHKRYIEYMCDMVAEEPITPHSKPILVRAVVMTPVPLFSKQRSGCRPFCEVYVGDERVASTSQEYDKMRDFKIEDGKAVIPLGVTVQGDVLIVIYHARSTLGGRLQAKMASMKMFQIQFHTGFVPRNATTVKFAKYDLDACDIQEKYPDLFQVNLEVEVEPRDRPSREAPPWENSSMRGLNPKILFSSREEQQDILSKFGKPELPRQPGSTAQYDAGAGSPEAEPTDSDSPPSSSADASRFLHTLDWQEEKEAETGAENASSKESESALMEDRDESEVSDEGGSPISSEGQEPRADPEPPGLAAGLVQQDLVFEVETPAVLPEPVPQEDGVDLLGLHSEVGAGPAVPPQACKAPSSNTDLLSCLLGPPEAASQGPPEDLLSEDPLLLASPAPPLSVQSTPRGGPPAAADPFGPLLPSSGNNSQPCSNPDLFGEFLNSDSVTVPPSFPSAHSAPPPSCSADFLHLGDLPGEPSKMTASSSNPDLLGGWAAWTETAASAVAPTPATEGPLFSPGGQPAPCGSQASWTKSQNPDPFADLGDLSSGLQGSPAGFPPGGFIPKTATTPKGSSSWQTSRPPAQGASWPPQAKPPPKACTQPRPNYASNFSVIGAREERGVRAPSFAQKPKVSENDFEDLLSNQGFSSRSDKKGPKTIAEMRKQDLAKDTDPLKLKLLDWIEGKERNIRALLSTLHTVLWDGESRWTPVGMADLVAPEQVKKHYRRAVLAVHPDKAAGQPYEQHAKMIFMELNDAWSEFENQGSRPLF
Chain of STK10 (human) (O94804 whole entry, looked up): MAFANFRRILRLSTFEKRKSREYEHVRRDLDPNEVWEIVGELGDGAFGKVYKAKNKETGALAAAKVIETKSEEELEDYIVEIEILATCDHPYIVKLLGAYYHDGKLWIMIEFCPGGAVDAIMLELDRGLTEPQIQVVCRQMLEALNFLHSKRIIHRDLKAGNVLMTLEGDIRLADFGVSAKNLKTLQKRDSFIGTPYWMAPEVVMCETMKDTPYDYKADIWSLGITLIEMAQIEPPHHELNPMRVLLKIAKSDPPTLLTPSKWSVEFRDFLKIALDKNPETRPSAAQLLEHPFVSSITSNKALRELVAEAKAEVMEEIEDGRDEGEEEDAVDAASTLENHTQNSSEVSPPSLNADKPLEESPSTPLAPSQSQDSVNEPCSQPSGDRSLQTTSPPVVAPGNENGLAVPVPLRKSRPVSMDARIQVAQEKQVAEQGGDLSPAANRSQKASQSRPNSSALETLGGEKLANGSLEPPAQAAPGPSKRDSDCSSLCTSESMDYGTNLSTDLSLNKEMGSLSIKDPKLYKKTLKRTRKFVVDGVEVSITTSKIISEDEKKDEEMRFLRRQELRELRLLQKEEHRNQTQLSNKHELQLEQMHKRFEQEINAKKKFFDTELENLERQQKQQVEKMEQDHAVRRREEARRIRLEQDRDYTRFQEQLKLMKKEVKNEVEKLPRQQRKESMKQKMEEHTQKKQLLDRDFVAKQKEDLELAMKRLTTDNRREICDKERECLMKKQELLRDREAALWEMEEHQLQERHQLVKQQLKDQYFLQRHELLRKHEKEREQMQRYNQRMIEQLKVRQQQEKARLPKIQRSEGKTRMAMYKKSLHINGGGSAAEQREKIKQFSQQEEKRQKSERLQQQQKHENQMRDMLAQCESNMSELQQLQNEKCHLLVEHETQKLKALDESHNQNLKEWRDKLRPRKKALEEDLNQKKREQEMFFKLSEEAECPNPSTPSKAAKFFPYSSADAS
Chain of CDK11B (human) (P21127 whole entry, looked up): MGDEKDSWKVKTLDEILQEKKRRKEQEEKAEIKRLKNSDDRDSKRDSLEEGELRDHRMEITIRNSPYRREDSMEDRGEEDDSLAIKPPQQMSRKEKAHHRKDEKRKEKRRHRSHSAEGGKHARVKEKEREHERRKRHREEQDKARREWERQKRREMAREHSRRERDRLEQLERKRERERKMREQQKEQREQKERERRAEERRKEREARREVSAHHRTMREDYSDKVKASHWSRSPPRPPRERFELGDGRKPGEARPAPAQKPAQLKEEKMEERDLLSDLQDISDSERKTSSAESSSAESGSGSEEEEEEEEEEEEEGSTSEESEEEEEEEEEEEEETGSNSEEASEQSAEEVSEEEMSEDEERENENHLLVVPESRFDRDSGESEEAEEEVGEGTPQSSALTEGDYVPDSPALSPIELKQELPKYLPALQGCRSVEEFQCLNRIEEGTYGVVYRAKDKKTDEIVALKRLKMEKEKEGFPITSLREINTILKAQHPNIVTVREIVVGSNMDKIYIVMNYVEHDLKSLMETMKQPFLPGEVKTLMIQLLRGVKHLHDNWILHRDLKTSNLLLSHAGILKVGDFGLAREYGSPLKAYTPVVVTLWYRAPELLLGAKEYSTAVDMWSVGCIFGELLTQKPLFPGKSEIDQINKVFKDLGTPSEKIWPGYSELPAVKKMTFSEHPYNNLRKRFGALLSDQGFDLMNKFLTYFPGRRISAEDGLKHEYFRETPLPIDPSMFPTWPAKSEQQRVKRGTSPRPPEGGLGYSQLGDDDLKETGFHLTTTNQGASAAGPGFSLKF

Structure (SMILES): O=C1Nc2cc(Br)ccc2/C1=C1/Nc2ccccc2/C1=N\O
- kinase still bound, per cent of control (PIP4K2B (human)): 1.5%
- kinase still bound, per cent of control (CDK11B (human)): 100%
- kinase still bound, per cent of control (CDC42BPB (human)): 90%
- kinase still bound, per cent of control (TNK2 (human)): 28%
- kinase still bound, per cent of control (NEK2 (human)): 82%
- kinase still bound, per cent of control (DCLK3 (human)): 8%
- kinase still bound, per cent of control (MAP3K9 (human)): 3.4%
- kinase still bound, per cent of control (STK17A (human)): 0%
- kinase still bound, per cent of control (GAK (human)): 2.1%
- kinase still bound, per cent of control (PRKD3 (human)): 70%
- kinase still bound, per cent of control (STK16 (human)): 0.8%
- kinase still bound, per cent of control (EPHB4 (human)): 48%
- kinase still bound, per cent of control (STK10 (human)): 75%
- kinase still bound, per cent of control (PHKG2 (human)): 5.6%
- kinase still bound, per cent of control (CDK17 (human)): 12%
- kinase still bound, per cent of control (MINK1 (human)): 6.2%
- kinase still bound, per cent of control (MAP3K11 (human)): 5.6%
- kinase still bound, per cent of control (ROCK2 (human)): 93%
- kinase still bound, per cent of control (MAP3K15 (human)): 43%
- kinase still bound, per cent of control (MAP4K4 (human)): 8%
- kinase still bound, per cent of control (SYK (human)): 4.6%
- kinase still bound, per cent of control (PLK4 (human)): 0%
- kinase still bound, per cent of control (MAP4K1 (human)): 18%
- kinase still bound, per cent of control (EPHA2 (human)): 35%
- kinase still bound, per cent of control (CHEK1 (human)): 32%
- kinase still bound, per cent of control (STK38L (human)): 48%
- kinase still bound, per cent of control (RPS6KA5 KD1 (human)): 47%
- kinase still bound, per cent of control (MAK (human)): 0.8%
- kinase still bound, per cent of control (CSNK1G3 (human)): 81%
- kinase still bound, per cent of control (DCLK1 (human)): 99%
- kinase still bound, per cent of control (CSNK2A2 (human)): 8%
- kinase still bound, per cent of control [1]: 87%
- kinase still bound, per cent of control [2]: 3.8%
- kinase still bound, per cent of control (STK3 (human)): 0%
- kinase still bound, per cent of control (MAPK10 (human)): 12%
- kinase still bound, per cent of control (OXSR1 (human)): 58%
- kinase still bound, per cent of control (RPS6KA2 KD1 (human)): 2.2%
- kinase still bound, per cent of control (AURKC (human)): 0.75%
- kinase still bound, per cent of control (CLK2 (human)): 8.2%
- kinase still bound, per cent of control (PAK7 (human)): 17%
- kinase still bound, per cent of control (MYO3A (human)): 60%
